Assay results: ChEMBL document CHEMBL2021881, “Ianthellamide A, a selective kynurenine-3-hydroxylase inhibitor from the Australian marine sponge Ianthella quadrangulata” (Bioorg Med Chem Lett, 2012)
Activity calls are given as the source filed them. The calls are words filed in the database; no cut-off is given here.

Tests used:
[1] = system: Rattus norvegicus; assay: Inhibition of kynurenine-3-hydroxylase in rat brain assessed as increase in Increase in extracellular kynurenic acid level at 200 mg/kg, ip coadministered with 100 mg/kg kynurenine by in-vivo microdialysis measured within 25 mins post dose relative to untreated control; assay type: functional, organism-based
[2] = system: Rattus norvegicus; assay: Inhibition of kynurenine-3-hydroxylase in rat brain assessed as increase in Increase in extracellular kynurenic acid level at 200 mg/kg, ip coadministered with 100 mg/kg kynurenine by in-vivo microdialysis measured up to 335 mins post dose relative to untreated control; assay type: functional
[3] = target: Kynurenine 3-monooxygenase (Rattus norvegicus, UniProt O88867); assay: (§1) Inhibition of kynurenine-3-hydroxylase in rat liver homogenates assessed as effect on production of 3-hydroxy kynurenine incubated for 1 hr by HPLC; assay type: tissue-based
Kynurenine 3-monooxygenase, sequence (O88867 whole entry): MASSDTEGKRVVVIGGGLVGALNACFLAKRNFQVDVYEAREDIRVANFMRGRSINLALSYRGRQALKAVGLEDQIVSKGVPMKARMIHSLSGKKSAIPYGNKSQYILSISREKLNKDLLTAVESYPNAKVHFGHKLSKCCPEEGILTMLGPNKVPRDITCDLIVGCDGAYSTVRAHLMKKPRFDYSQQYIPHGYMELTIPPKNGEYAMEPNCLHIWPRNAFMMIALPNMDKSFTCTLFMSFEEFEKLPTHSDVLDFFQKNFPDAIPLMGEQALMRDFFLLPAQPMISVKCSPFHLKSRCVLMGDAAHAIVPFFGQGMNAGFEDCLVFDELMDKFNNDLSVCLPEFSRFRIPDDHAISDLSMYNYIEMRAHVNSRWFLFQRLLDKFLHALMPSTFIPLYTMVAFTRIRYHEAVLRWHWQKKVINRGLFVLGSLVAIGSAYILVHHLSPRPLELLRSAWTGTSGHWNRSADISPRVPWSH

[4] = target: Kynurenine 3-monooxygenase (Rattus norvegicus) (UniProt O88867); assay: as §1; assay type: tissue-based
Kynurenine 3-monooxygenase (Rattus norvegicus), sequence (O88867 whole entry, looked up): as the sequence (O88867 whole entry) above

[5] = target: T1, Kynureninase (Rattus norvegicus) (UniProt P70712); assay: Inhibition of kynureninase in rat liver homogenates assessed as effect on production of anthranilic acid at >125 uM incubated for 30 mins by HPLC; assay type: tissue-based
T1 sequence (whole entry): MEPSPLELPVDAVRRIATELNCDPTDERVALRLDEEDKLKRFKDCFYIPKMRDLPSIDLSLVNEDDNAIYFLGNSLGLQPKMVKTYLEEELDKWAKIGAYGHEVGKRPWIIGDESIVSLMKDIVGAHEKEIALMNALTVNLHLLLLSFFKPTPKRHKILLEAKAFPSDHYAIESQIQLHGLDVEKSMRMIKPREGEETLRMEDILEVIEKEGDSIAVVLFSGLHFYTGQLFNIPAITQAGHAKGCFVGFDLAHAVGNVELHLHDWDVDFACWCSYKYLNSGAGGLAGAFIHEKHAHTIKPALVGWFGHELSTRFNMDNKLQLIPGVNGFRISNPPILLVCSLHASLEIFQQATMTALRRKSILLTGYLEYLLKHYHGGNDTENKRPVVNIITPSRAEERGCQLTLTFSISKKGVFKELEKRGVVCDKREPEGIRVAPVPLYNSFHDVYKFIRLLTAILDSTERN

[6] = system: Rattus norvegicus; assay: Effect on extracellular kynurenic acid in rat brain dosed at 200 mg/kg, ip by in-vivo microdialysis measured for 6 hrs post dose (reference value: 1.55 +/- 0.05 pg/ml); assay type: functional; settings: route intraperitoneal
[7] = target: T1, Kynureninase (Rattus norvegicus); assay: Inhibition of kynureninase in rat liver homogenates assessed as effect on production of anthranilic acid up to 125 uM incubated for 30 mins by HPLC; assay type: tissue-based
[8] = system: Rattus norvegicus; assay: Inhibition of kynurenine-3-hydroxylase in rat brain assessed as increase in Increase in extracellular kynurenic acid level at 200 mg/kg, ip coadministered with 100 mg/kg kynurenine by in-vivo microdialysis measured at 135 mins post dose relative to untreated control; assay type: functional, organism-based
[9] = target: Kynurenine 3-monooxygenase (Rattus norvegicus) (UniProt O88867); assay: Inhibition of kynurenine-3-hydroxylase in rat liver homogenates assessed as effect on production of 3-hydroxy kynurenine up to 125 uM incubated for 1 hr by HPLC; assay type: tissue-based
[10] = system: Rattus norvegicus; assay: Inhibition of kynurenine-3-hydroxylase in rat brain assessed as increase in Increase in extracellular kynurenic acid level at 200 mg/kg, ip coadministered with 100 mg/kg kynurenine by in-vivo microdialysis measured at 5 hrs post dose relative to untreated control; assay type: functional, organism-based

IC50 [3]: 1500 nM | inhibition [4]: Dose-dependent effect | inhibition [5]: Active | inhibition [7]: inactive | inhibition [9]: Active
SMILES: CC(=O)NCCCO[C@@H](CN)c1cc(Br)c(OS(=O)(=O)O)c(Br)c1 [IANTHELLAMIDE A]
Activity [1]: Active | fold change (FC) [2]: 20 | Activity [6]: 1.72 pg/µL | Activity [8]: Active | Activity [10]: Active
